Source: ChEMBL document CHEMBL1833844, “Sulfonamides as selective oestrogen receptor β agonists” (Bioorg Med Chem Lett, 2011)

Tests used:
[1] = molecular target: T1, Estrogen receptor beta (Homo sapiens, UniProt Q92731); assay: Agonist activity at ERbeta expressed in […] cells co-expressing beta-lactamase at 10 uM after 18 hrs by beta-lactamase reporter gene assay relative to estradiol; format: functional, cell-based
[2] = molecular target: T2, Estrogen receptor (Homo sapiens, UniProt P03372); assay: Agonist activity at ERalpha expressed in HEK cells co-expressing beta-lactamase after 18 hrs by beta-lactamase reporter gene assay; format: functional, cell-based, HEK293
T2 sequence (P03372 whole entry): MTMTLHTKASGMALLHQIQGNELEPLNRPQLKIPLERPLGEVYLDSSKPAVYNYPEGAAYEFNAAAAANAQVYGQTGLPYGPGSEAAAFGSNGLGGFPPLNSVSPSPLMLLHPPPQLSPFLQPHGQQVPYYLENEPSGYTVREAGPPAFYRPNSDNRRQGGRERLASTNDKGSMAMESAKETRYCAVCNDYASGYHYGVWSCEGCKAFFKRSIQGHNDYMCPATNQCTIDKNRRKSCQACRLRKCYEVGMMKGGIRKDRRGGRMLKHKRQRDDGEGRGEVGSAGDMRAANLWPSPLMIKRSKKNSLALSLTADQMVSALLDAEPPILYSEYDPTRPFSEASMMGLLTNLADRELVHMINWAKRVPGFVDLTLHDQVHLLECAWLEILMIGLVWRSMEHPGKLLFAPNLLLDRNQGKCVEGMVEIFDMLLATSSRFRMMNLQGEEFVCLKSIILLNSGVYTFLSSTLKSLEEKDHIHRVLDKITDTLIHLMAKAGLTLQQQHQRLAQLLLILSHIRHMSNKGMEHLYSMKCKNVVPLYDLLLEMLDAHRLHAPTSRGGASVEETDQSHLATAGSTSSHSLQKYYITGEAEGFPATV

[3] = molecular target: T1, Estrogen receptor beta; assay: Agonist activity at ERbeta expressed in […] cells co-expressing beta-lactamase after 18 hrs by beta-lactamase reporter gene assay; format: functional, cell-based
[4] = molecular target: T3, Estrogen receptor (Homo sapiens) (UniProt P03372); assay: Agonist activity at ERalpha expressed in HEK cells co-expressing beta-lactamase at 10 uM after 18 hrs by beta-lactamase reporter gene assay relative to estradiol; format: functional, cell-based; details: HEK293
T3 sequence (whole entry): T2 sequence (P03372 whole entry)

[5] = Octanol-buffer partition coefficient, log D of the compound at pH 7.4; format: physicochemical

T1 sequence (Q92731 whole entry): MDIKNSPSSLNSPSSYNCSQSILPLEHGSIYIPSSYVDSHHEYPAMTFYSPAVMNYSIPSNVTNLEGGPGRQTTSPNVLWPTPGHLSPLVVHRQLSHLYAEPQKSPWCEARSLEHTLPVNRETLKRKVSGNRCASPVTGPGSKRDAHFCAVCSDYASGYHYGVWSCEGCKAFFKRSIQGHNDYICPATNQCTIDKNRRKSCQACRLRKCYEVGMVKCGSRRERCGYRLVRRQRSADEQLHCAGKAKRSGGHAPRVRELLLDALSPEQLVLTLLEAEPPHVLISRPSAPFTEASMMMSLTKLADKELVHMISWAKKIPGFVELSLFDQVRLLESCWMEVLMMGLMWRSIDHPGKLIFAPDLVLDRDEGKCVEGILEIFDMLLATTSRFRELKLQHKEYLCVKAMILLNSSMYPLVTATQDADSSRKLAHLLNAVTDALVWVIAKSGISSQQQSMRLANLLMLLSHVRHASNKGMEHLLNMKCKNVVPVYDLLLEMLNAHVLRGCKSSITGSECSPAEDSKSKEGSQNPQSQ

Row | SMILES | Emax [1] | EC50 [2] | EC50 [3] | Emax [4] | logD [5]
1 | O=S(=O)(c1ccc(O)cc1)N(CCC(F)(F)F)c1ccc(O)cc1 | 104% | 357 nM | 43 nM | 87% | –
2 | O=S(=O)(c1ccc(O)cc1)N1[C@@H]2CC[C@H]1C[C@H](CO)C2 | 111% | 3500 nM | > 3000 nM | 94% | –
3 | Cc1ccc(O)c(CCNS(=O)(=O)c2ccc(O)cc2)c1 | 73% | – | > 2400 nM | – | –
4 | C[C@](O)(CN(C1CC1)S(=O)(=O)c1ccc(O)cc1)c1ccccc1 | 48% | > 5400 nM | 79 nM | 107% | 2.7
5 | C[C@@](O)(CN(C1CC1)S(=O)(=O)c1ccc(O)cc1)c1ccccc1 | < 20% | > 4560 nM | 110 nM | 85% | –
6 | CN(CC(C)(O)c1ccccc1)S(=O)(=O)c1ccc(O)cc1 (racemic) | 49% | > 3200 nM | 1100 nM | – | –
7 | CC(C)N(CC(C)(O)c1ccccc1)S(=O)(=O)c1ccc(O)cc1 (racemic) | 44% | > 2610 nM | 418 nM | 89% | 2.9
8 | CCCCN(CC(C)(O)c1ccccc1)S(=O)(=O)c1ccc(O)cc1 (racemic) | < 30% | > 1100 nM | 84 nM | 82% | 3.4
9 | CC(O)(CN(C1CC1)S(=O)(=O)c1ccc(O)cc1)c1ccccc1 (racemic) | 47% | 2310 nM | 101 nM | 79% | 2.5
10 | O=S(=O)(c1ccc(O)cc1)N(CC(O)(c1ccccc1)C(F)(F)F)C1CC1 (racemic) | 43% | > 2680 nM | 14 nM | 66% | 3.2
11 | CCCCC(O)(CN(C1CC1)S(=O)(=O)c1ccc(O)cc1)c1ccccc1 (racemic) | 36% | > 6510 nM | 65 nM | 82% | 3.9
12 | CC(O)(CN(C1CC1)S(=O)(=O)c1ccc(O)cc1)c1ccccc1F (racemic) | 49% | > 10000 nM | 48 nM | – | 3
13 | CC(O)(CN(C1CC1)S(=O)(=O)c1ccc(O)cc1)c1c(F)cccc1F (racemic) | 45% | 3800 nM | 51 nM | 75% | 2.9
14 | CC(O)(CN(C1CC1)S(=O)(=O)c1ccc(O)cc1)c1cc[nH]n1 (racemic) | 86% | > 10000 nM | 1480 nM | – | 1.3
15 | CC(O)(CN(C1CC1)S(=O)(=O)c1ccc(O)cc1)c1ccc(O)cc1 (racemic) | 82% | > 4800 nM | 437 nM | – | 2
